This is an account of results in patent publication US6440986B2, “HIV Inhibiting pyrimidine derivatives” (Janssen Pharmaceutica, N.V., priority 1998, dated 2002).

The nature of data set [1]: cytotoxicity in mock-infected MT-4 cells (MTT). It is filed as cell-based. The conditions noted are these: human, mock-infected MT-4 cells, 50% cytotoxic concentration; reduces absorbance of mock-infected MT-4 control by 50%; MTT. The method, then:
A rapid, sensitive and automated assay procedure was used for the in vitro evaluation of anti-HIV agents. […] Inhibition of the HIV-induced cytopathic effect was used as the end point. The viability of both HIV- and mock-infected cells was assessed spectrophotometrically via the in situ reduction of 3-(4,5-dimethylthiazol-2-yl)-2,5-diphenyltetrazolium bromide (MTT). […] The percent protection achieved by the compound in HIV-infected cells was calculated by the following formula: [formula]
(§1) whereby (ODT)HIV is the optical density measured with a given concentration of the test compound in HIV-infected cells; (ODC)HIV is the optical density measured for the control untreated HIV-infected cells: (ODC)MOCK is the optical density measured for the control untreated mock-infected cells; all optical density values were determined at 540 nm. […] The ratio of CC50 to IC50 was defined as the selectivity index (SI).

For another data set, the system named is HIV-1. The experiment in a line: in vitro anti-HIV assay: inhibition of the HIV-induced cytopathic effect in MT-4 cells (MTT). It is filed as cell-based. The conditions noted are these: Human immunodeficiency virus 1, MT4, dose achieving 50% protection of HIV-infected MT-4 cells against cytopathic effect, OD 540 nm. The method, then: A rapid, sensitive and automated assay procedure was used for the in vitro evaluation of anti-HIV agents. An […] T4-cell line, MT-4, which was previously shown (Koyanagi et al., Int. J. Cancer, 36, 445-451, 1985) to be highly susceptible to and permissive for HIV infection, served as the target cell line. Inhibition of the HIV-induced cytopathic effect was used as the end point. The viability of both HIV- and mock-infected cells was assessed spectrophotometrically via the in situ reduction of 3-(4,5-dimethylthiazol-2-yl)-2,5-diphenyltetrazolium bromide (MTT). […] The percent protection achieved by the compound in HIV-infected cells was calculated by the following formula: [formula]
as §1
On the technique in general: Cytopathic effects are the visible damage that an infection or toxin causes in cultured cells.

What is called melting point is the temperature of the solid-liquid transition. Broadly, the CC50 is the concentration that lowers cell viability or growth by half. A lower CC50 goes with greater toxicity to the cells. As a reminder, the IC50 is the concentration at which inhibition is half-maximal. The low end stands for greater potency, the high end for weaker potency. On to `CN(C)C=Nc1cc(Cc2c(Cl)cccc2Cl)nc(Nc2ccc(C#N)cc2)n1` [Compound 26, N′-[2-[(4-cyanophenyl)amino]-6-[(2,6-dichlorophenyl)methyl]-4-pyrimidinyl]-N,N-dimethylmethanimidamide], for which the melting point fell in the range of 175 to 180 °C. For the same compound, in data set [1], the CC50 amounted to 33.5 µM. For the same compound, the IC50 in the data set on HIV-1 is 0.011 µM.
